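Step 1: Grow cells in 96-well plates. Step 2: Expose to compound for 48 hours at 5 concentrations. Step 3: Interpolate endpoints linearly; if unreached, use highest concentration. GI50 marks 50% less growth.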 Calls of active or inactive are those of the source. No stated cut-off is given here; in the data, active = GI50 up to about 1.1 µM and inactive = higher.
Assays:
Test in all cases: NCI tumour cell line growth inhibition, 48 h
NCI-H226 = tested on: NCI-H226
CCRF-CEM = tested on: CCRF-CEM
SR = tested on: SR
HOP-92 = tested on: HOP-92
MDA-MB-435 = tested on: MDA-MB-435
ACHN = tested on: ACHN
U-251 = tested on: U-251
M14 = tested on: M14
OVCAR-8 = tested on: OVCAR-8
SF-539 = tested on: SF-539
HCT-116 = tested on: HCT-116
NCI-H522 = tested on: NCI-H522
NCI/ADR-RES = tested on: NCI/ADR-RES
MDA-MB-231 = tested on: MDA-MB-231
SNB-19 = tested on: SNB-19
RPMI-8226 = tested on: RPMI-8226
HCT-15 = tested on: HCT-15
OVCAR-5 = tested on: OVCAR-5
MOLT-4 = tested on: MOLT-4
SW-620 = tested on: SW-620

Row | SMILES | GI50 (NCI-H226) | GI50 (CCRF-CEM) | GI50 (SR) | GI50 (HOP-92) | GI50 (MDA-MB-435) | GI50 (ACHN) | GI50 (U-251) | GI50 (M14) | GI50 (OVCAR-8) | GI50 (SF-539) | GI50 (HCT-116) | GI50 (NCI-H522) | GI50 (NCI/ADR-RES) | GI50 (MDA-MB-231) | GI50 (SNB-19) | GI50 (RPMI-8226) | GI50 (HCT-15) [µM] | GI50 (OVCAR-5) | GI50 (MOLT-4) | GI50 (SW-620)
1 | O=C(/C=C/c1cccc(Br)c1)N1CCN(CCOC(c2ccccc2)c2ccccc2)CC1 | 45 µM (inactive) | 17.1 µM (inactive) | 16.1 µM (inactive) | 23 µM (inactive) | 38.7 µM (inactive) | 57.3 µM (inactive) | 35.3 µM (inactive) | 62.2 µM (inactive) | 55.5 µM (inactive) | 18.4 µM (inactive) | 29.3 µM (inactive) | 29.1 µM (inactive) | 35.6 µM (inactive) | > 100 µM (inactive) | > 100 µM (inactive) | 12.2 µM (inactive) | 27.6 | > 100 µM (inactive) | 6.53 µM (inactive) | 50.8 µM (inactive)
2 | CCOC(=O)c1cn2c(n1)sc1c(Cl)c(Cl)ccc12 | 14.8 µM (inactive) | 4.97 µM (inactive) | 2.55 µM (inactive) | 24.5 µM (inactive) | 3.31 µM (inactive) | 15.3 µM (inactive) | 11 µM (inactive) | 9.38 µM (inactive) | 15.9 µM (inactive) | 6.76 µM (inactive) | 5.69 µM (inactive) | 4.11 µM (inactive) | 8.38 µM (inactive) | 26.7 µM (inactive) | 25.3 µM (inactive) | 5.02 µM (inactive) | 5.07 | 30.2 µM (inactive) | 8.71 µM (inactive) | 5.13 µM (inactive)
3 | CCCCCNC(=O)OC1CCn2c1nc1c2C(=O)C(C)=C(N2CC2)C1=O (configuration not stated) | 2 µM (inactive) | 26.5 µM (inactive) | 20.7 µM (inactive) | 21.4 µM (inactive) | 1.62 µM (inactive) | 0.548 µM (active) | 1.67 µM (inactive) | 1.45 µM (inactive) | 1.46 µM (inactive) | 2 µM (inactive) | 1.24 µM (inactive) | 0.769 µM (active) | 2.56 µM (inactive) | 2.01 µM (inactive) | 2.9 µM (inactive) | 2.4 µM (inactive) | 1.92 | 3.05 µM (inactive) | 10.7 µM (inactive) | 0.492 µM (active)
4 | C=CN1CCN(c2ccccc2)P1(=O)Oc1ccccc1 (configuration not stated) | 65.2 µM (inactive) | > 100 µM (inactive) | > 100 µM (inactive) | 50.9 µM (inactive) | 90.6 µM (inactive) | 48.8 µM (inactive) | > 100 µM (inactive) | 40.2 µM (inactive) | 89.3 µM (inactive) | > 100 µM (inactive) | 48 µM (inactive) | 31.6 µM (inactive) | 55.2 µM (inactive) | 55.6 µM (inactive) | > 100 µM (inactive) | > 100 µM (inactive) | > 100 | > 100 µM (inactive) | > 100 µM (inactive) | > 100 µM (inactive)
5 | c1ccc(CCCCNCc2cc(CNCCCCc3ccccc3)cc(CNCCCCc3ccccc3)c2)cc1 | 2.6 µM (inactive) | 0.211 µM (active) | 0.216 µM (active) | 1.45 µM (inactive) | 1.21 µM (inactive) | 1.63 µM (inactive) | 1.12 µM (inactive) | 0.556 µM (active) | 0.782 µM (active) | 0.8 µM (active) | 1.97 µM (inactive) | 0.667 µM (active) | 0.76 µM (active) | 1.61 µM (inactive) | 0.714 µM (active) | 0.16 µM (active) | 0.586 | 1.7 µM (inactive) | 0.251 µM (active) | 0.301 µM (active)
6 | Cc1cnc2[nH]c(-c3ccccc3)cc(=O)c2c1 | 0.122 µM (active) | 0.0159 µM (active) | < 0.01 µM (active) | 0.065 µM (active) | < 0.01 µM (active) | 0.0608 µM (active) | 0.0188 µM (active) | 0.0213 µM (active) | 0.04 µM (active) | 0.0246 µM (active) | < 0.0155 µM (active) | < 0.0118 µM (active) | 0.012 µM (active) | 0.217 µM (active) | 0.0904 µM (active) | 0.0219 µM (active) | 0.0212 | 3.07 µM (inactive) | 0.0252 µM (active) | < 0.01 µM (active)
7 | COc1cc(/C=C/c2sc3ccccc3[n+]2C)ccc1N(C)C | 22.4 µM (inactive) | 2.06 µM (inactive) | 1.94 µM (inactive) | 1.85 µM (inactive) | 3.32 µM (inactive) | 11.1 µM (inactive) | 6.9 µM (inactive) | 13.4 µM (inactive) | 2.93 µM (inactive) | 17.3 µM (inactive) | 3.3 µM (inactive) | 3.01 µM (inactive) | > 10 µM (inactive) | 6.14 µM (inactive) | 12.9 µM (inactive) | 2.21 µM (inactive) | 37.2 | 20.3 µM (inactive) | 4.55 µM (inactive) | 5.07 µM (inactive)
8 | N#Cc1ccc(/N=N/N2CCCC2)cc1 | > 100 µM (inactive) | 43.7 µM (inactive) | 15.2 µM (inactive) | > 100 µM (inactive) | > 100 µM (inactive) | > 100 µM (inactive) | > 100 µM (inactive) | > 100 µM (inactive) | > 100 µM (inactive) | > 100 µM (inactive) | > 100 µM (inactive) | > 100 µM (inactive) | > 100 µM (inactive) | > 100 µM (inactive) | > 100 µM (inactive) | 40.2 µM (inactive) | > 100 | > 100 µM (inactive) | 61.2 µM (inactive) | > 100 µM (inactive)
9 | C=CCOC(=O)N1[C@H]2C#C/C=C\C#C[C@]3(O)C(=O)C[C@H](C)[C@]24O[C@]43C2=CC(=O)C=CC21OC (some centres not stated) | 30.5 µM (inactive) | 16.8 µM (inactive) | 4.62 µM (inactive) | 38 µM (inactive) | 16.6 µM (inactive) | 20.2 µM (inactive) | 37.7 µM (inactive) | 20.4 µM (inactive) | 22.5 µM (inactive) | 20.6 µM (inactive) | 19.8 µM (inactive) | 18.6 µM (inactive) | 43.8 µM (inactive) | 28.3 µM (inactive) | 38.3 µM (inactive) | 21.2 µM (inactive) | 31.4 | 35.2 µM (inactive) | 3.72 µM (inactive) | 32.8 µM (inactive)
10 | COC1=CC(=O)c2c(O)c3c(c(O)c2C1=O)C[C@](C)(O)C[C@@H]3O | 23.9 µM (inactive) | 5.7 µM (inactive) | 2.92 µM (inactive) | 9.48 µM (inactive) | 1.88 µM (inactive) | 5.15 µM (inactive) | 4.69 µM (inactive) | 2.6 µM (inactive) | 4.07 µM (inactive) | 3.08 µM (inactive) | 2.61 µM (inactive) | 4.52 µM (inactive) | 3.78 µM (inactive) | 7.74 µM (inactive) | 4.92 µM (inactive) | 8.11 µM (inactive) | 4.01 | 12.7 µM (inactive) | 7.8 µM (inactive) | 3.92 µM (inactive)
11 | Cc1cccc2sc(NC(=O)c3cc([N+](=O)[O-])ccc3Cl)nc12 | 5.71 µM (inactive) | 0.0817 µM (active) | > 100 µM (inactive) | 2.77 µM (inactive) | 2.67 µM (inactive) | 5.41 µM (inactive) | 2.85 µM (inactive) | 1.77 µM (inactive) | 2.36 µM (inactive) | 2.36 µM (inactive) | 2.55 µM (inactive) | 1.78 µM (inactive) | 2.76 µM (inactive) | 4.73 µM (inactive) | 7.78 µM (inactive) | 3.31 µM (inactive) | 1.91 | 5.87 µM (inactive) |  | 2.42 µM (inactive)
12 | CC1(C)OC(=O)C(C)(C)OC1=O | > 100 µM (inactive) | > 100 µM (inactive) | > 100 µM (inactive) | > 100 µM (inactive) | > 100 µM (inactive) | > 100 µM (inactive) | > 100 µM (inactive) | > 100 µM (inactive) | > 100 µM (inactive) | > 100 µM (inactive) | > 100 µM (inactive) | > 100 µM (inactive) | > 100 µM (inactive) | > 100 µM (inactive) | > 100 µM (inactive) | > 100 µM (inactive) | > 100 | > 100 µM (inactive) | > 100 µM (inactive) | > 100 µM (inactive)
13 | NCCCN1c2ccccc2Sc2ccc(Cl)cc21 | 9.95 µM (inactive) | 3.19 µM (inactive) | 2.18 µM (inactive) | > 10 µM (inactive) | 1.93 µM (inactive) | 6.18 µM (inactive) | 5.38 µM (inactive) | 1.73 µM (inactive) | 5.7 µM (inactive) | 5.22 µM (inactive) | 2.53 µM (inactive) | 3.2 µM (inactive) | > 5.4 µM (inactive) | 3.33 µM (inactive) | > 8.45 µM (inactive) | 3.95 µM (inactive) | 4.72 | > 5.28 µM (inactive) | 2.88 µM (inactive) | 2.9 µM (inactive)
14 | CC(N)/C(N)=N/O (configuration not stated) | > 100 µM (inactive) | > 100 µM (inactive) | > 100 µM (inactive) | > 100 µM (inactive) | > 100 µM (inactive) | > 100 µM (inactive) | > 100 µM (inactive) | > 100 µM (inactive) | > 100 µM (inactive) | > 100 µM (inactive) | > 100 µM (inactive) | > 100 µM (inactive) | > 100 µM (inactive) | > 100 µM (inactive) | > 100 µM (inactive) | > 100 µM (inactive) | > 100 | > 100 µM (inactive) |  | > 100 µM (inactive)
15 | Cc1ccc(-c2cc(N)n(-c3nc4c([nH]3)c(=O)n(C)c(=O)n4C)n2)cc1 | 6.71 µM (inactive) | 2.64 µM (inactive) | 2.43 µM (inactive) | 12.8 µM (inactive) | 7.73 µM (inactive) | 1.92 µM (inactive) | 5.36 µM (inactive) | 4.32 µM (inactive) | 3.37 µM (inactive) | 4.24 µM (inactive) | 2.69 µM (inactive) | 29 µM (inactive) | 1.55 µM (inactive) | 8.97 µM (inactive) | 8.55 µM (inactive) | 6.81 µM (inactive) | 0.47 | 8.05 µM (inactive) | 2.06 µM (inactive) | 
